# Like-named read-outs stand apart in the source and are kept apart here.
# Assays:
# Souris = assay: antireserpine activity: reserpine hypothermia; format: in vivo; conditions: réserpine 5 mg/kg i.p. 17 h before
# Procedure: On note ensuite les températures témoins (réserpine), puis les températures 1, 2, 3 et 4 heures après l'administration des produits étudiés.
# Les animaux sont répartis en lots de 4 animaux et reçoivent par voie intrapéritonéale la réserpine à une dose de 5 mg/kg. 17 heures après cette injection, on mesure la température corporelle de l'animal à l'aide d'une sonde thermocouple introduite dans le rectum; chaque lot reçoit ensuite la substance par voie intrapéritonéale. Le lot témoin reçoit la même quantité de solvant et par la même voie. La température corporelle est ensuite mesurée toutes les heures pendant 4 heures.
# Les résultats sont rassemblés dans un tableau récapitulatif-où sont indiqués : • - la température moyenne pour chaque lot relevée 17 heures après l'injection de la réserpine, • - la moyenne des variations de température pour chaque lot relevées 1,2, 3 et 4 heures après l'injection de la substance étudiée, • - la somme des variations de températures pendant 4 heures, • - le pourcentage d'augmentation de la température pour chaque produit par rapport aux témoins.
# [1] = acute toxicity in the mouse, intraperitoneal; format: in vivo, Souris; conditions: mouse, in vivo, ip, voie intrapéritonéale; for LD50 at 48 h: souris femelles, read-out: DL 50; for mortality at 48 h: read-out: Mortalité %
# Excerpt: (§1) Les produits ont été administrés par voie intrapéritonéale à des souris femelles dont le poids variait de 18 à 30 g.
# (§2) Les animaux injectés ont été maintenus dans une salle thermostatée, nourris et abreuvés à volonté.
# (§3) La mortalité a été relevée à 1 heure, 4 heures, 24 heures et 48 heures.
# souris femelles = assay: acute toxicity in the mouse, intraperitoneal; format: in vivo; conditions: voie intrapéritonéale; for Mortalité en 1 heure / Mortalité en 48 h. / Mortalité en 48 heures: dead mice of the group
# Excerpt: as §1, §2, §3
# [2] = ip, 4 h, product i.p. 150 mg/kg, read-out: % d'augmentation par rapport aux témoins
# [3] = ip, 4 h, product i.p. 50 mg/kg, read-out: % d'augmentation par rapport aux témoins
compound,measurement,setting,value
"c1ccc(C2=NOC3c4ccccc4Nc4ccccc4C23)cc1 (stereo not drawn) [compound 1, phényl-3 trihydro-3a,8,12b (dibenzo [b,f]isoxazolo [4,5-d])azépine]",change in vivo at 15 mg/kg,"Souris; ip, 4 h, product i.p. 15 mg/kg, read-out: % d'augmentation par rapport aux témoins",45%
same,variation de température T= 2h,Souris; product i.p. 15 mg/kg,"+0,5"
same,variation de température T=3h,Souris; product i.p. 15 mg/kg,"+0,4"
same,variation de température T=4h,Souris; product i.p. 15 mg/kg,"+0,7"
same,LD50 at 48 h,[1],> 100 mg/kg
same,mortality at 48 h,[1]; 50 mg/kg,0%
same,mortality at 48 h,[1]; 100 mg/kg,0%
same,Mortalité en 1 heure,souris femelles; 50 mg/kg,0
same,Mortalité en 48 h.,souris femelles; 50 mg/kg,0
same,Mortalité en 1 heure,souris femelles; 100 mg/kg,0
same,Mortalité en 48 h.,souris femelles; 100 mg/kg,0
"CC(CN(C)C)CN1c2ccccc2C2ON=C(c3ccccc3)C2c2ccccc21 (stereo not drawn) [compound 4, (méthyl-2 diméthylamino-3 propyl)-8 phényl-3 trihydro-3a, 8, 12b (dibenzo[b,f]-isoxazolo [4,5-d]) azépine]",LD50 at 48 h,[1],175 mg/kg
same,mortality at 48 h,[1]; 100 mg/kg,0%
same,mortality at 48 h,[1]; 300 mg/kg,100%
same,Mortalité en 1 heure,souris femelles; 100 mg/kg,0
same,Mortalité en 48 h.,souris femelles; 100 mg/kg,0
same,Mortalité en 1 heure,souris femelles; 300 mg/kg,4
same,Mortalité en 48 h.,souris femelles; 300 mg/kg,4
OCCN1CCN(CCCN2c3ccccc3C3ON=C(c4ccccc4)C3c3ccccc32)CC1 (stereo not drawn) [compound 5],LD50 at 48 h,[1],125 mg/kg
same,mortality at 48 h,[1]; 75 mg/kg,20%
same,mortality at 48 h,[1]; 125 mg/kg,40%
same,mortality at 48 h,[1]; 200 mg/kg,100%
same,mortality at 48 h,[1]; 250 mg/kg,100%
same,Mortalité en 1 heure,souris femelles; 75 mg/kg,1
same,Mortalité en 48 h.,souris femelles; 75 mg/kg,1
same,Mortalité en 1 heure,souris femelles; 125 mg/kg,2
same,Mortalité en 48 h.,souris femelles; 125 mg/kg,2
same,Mortalité en 1 heure,souris femelles; 200 mg/kg,5
same,Mortalité en 48 h.,souris femelles; 200 mg/kg,5
same,Mortalité en 1 heure,souris femelles; 250 mg/kg,5
same,Mortalité en 48 h.,souris femelles; 250 mg/kg,5
"c1ccc(C2=NN(c3ccccc3)C3c4ccccc4Nc4ccccc4C23)cc1 (stereo not drawn) [compound 6, diphényl-1,3 tétrahydro-1,3a,8,12b(dibenzo [b,d]pyrazolo[3,4-d])hazépine]",change in vivo at 150 mg/kg,Souris; [2],80%
same,variation de température T= 2h,Souris; product i.p. 150 mg/kg,"+0,7"
same,variation de température T=3h,Souris; product i.p. 150 mg/kg,"+0,6"
same,variation de température T=4h,Souris; product i.p. 150 mg/kg,"+0,4"
same,LD50 at 48 h,[1],> 750 mg/kg
same,mortality at 48 h,[1]; 500 mg/kg,0%
same,mortality at 48 h,[1]; 750 mg/kg,0%
same,Mortalité en 1 heure,souris femelles; 500 mg/kg,0
same,Mortalité en 48 h.,souris femelles; 500 mg/kg,0
same,Mortalité en 1 heure,souris femelles; 750 mg/kg,0
same,Mortalité en 48 h.,souris femelles; 750 mg/kg,0
"CN(C)CCCN1c2ccccc2C2C(c3ccccc3)=NN(c3ccccc3)C2c2ccccc21 (stereo not drawn) [compound 8, (y-diméthylaminopropyl)-8 diphênyl-1,3 tétrahydro-1,3a,8, 12b(dibenzo [b,f]pyrazolo [3,4-d])azépine]",LD50 at 48 h,[1],> 250 mg/kg
same,mortality at 48 h,[1]; 5 mg/kg,0%
same,mortality at 48 h,[1]; 50 mg/kg,0%
same,mortality at 48 h,[1]; 100 mg/kg,0%
same,mortality at 48 h,[1]; 150 mg/kg,20%
same,mortality at 48 h,[1]; 250 mg/kg,0%
same,Mortalité en 1 heure,souris femelles; 5 mg/kg,0
same,Mortalité en 48 h.,souris femelles; 5 mg/kg,0
same,Mortalité en 1 heure,souris femelles; 50 mg/kg,0
same,Mortalité en 48 h.,souris femelles; 50 mg/kg,0
same,Mortalité en 1 heure,souris femelles; 100 mg/kg,0
same,Mortalité en 48 h.,souris femelles; 100 mg/kg,0
same,Mortalité en 1 heure,souris femelles; 150 mg/kg,1
same,Mortalité en 48 h.,souris femelles; 150 mg/kg,1
same,Mortalité en 1 heure,souris femelles; 250 mg/kg,0
same,Mortalité en 48 h.,souris femelles; 250 mg/kg,0
"CC(CN(C)C)CN1c2ccccc2C2C(c3ccccc3)=NN(c3ccccc3)C2c2ccccc21 (stereo not drawn) [compound 9, (méthyl-2 diméthylamino-3 propyl)-8 diphényl-1,3 tétrahydro-1,3a, 8, 12b (dibenzo [b, f]pyrazolo [3,4-d])azépine]",change in vivo at 50 mg/kg,Souris; [3],60%
same,variation de température T= 2h,Souris; product i.p. 50 mg/kg,"+0,8"
same,variation de température T=3h,Souris; product i.p. 50 mg/kg,"+0,6"
same,variation de température T=4h,Souris; product i.p. 50 mg/kg,"+0,1"
same,LD50 at 48 h,[1],> 300 mg/kg
same,mortality at 48 h,[1]; 150 mg/kg,0%
same,mortality at 48 h,[1]; 300 mg/kg,0%
same,Mortalité en 1 heure,souris femelles; 150 mg/kg,0
same,Mortalité en 48 h.,souris femelles; 150 mg/kg,0
same,Mortalité en 1 heure,souris femelles; 300 mg/kg,0
same,Mortalité en 48 h.,souris femelles; 300 mg/kg,0
"c1ccc(-c2nn(-c3ccccc3)c3c2-c2ccccc2Nc2ccccc2-3)cc1 [compound 12, diphényl-1,3 dihydro-1,8 (dibenzo[b,f]pyrazolo[3,4-d]) azépine]",change in vivo at 50 mg/kg,Souris; [3],10%
same,variation de température T= 2h,Souris; product i.p. 50 mg/kg,"+0,4"
same,variation de température T=3h,Souris; product i.p. 50 mg/kg,"+0,3"
same,variation de température T=4h,Souris; product i.p. 50 mg/kg,"+0,4"
same,LD50 at 48 h,[1],> 250 mg/kg
same,mortality at 48 h,[1]; 125 mg/kg,0%
same,mortality at 48 h,[1]; 250 mg/kg,0%
same,Mortalité en 1 heure,souris femelles; 125 mg/kg,0
same,Mortalité en 48 h.,souris femelles; 125 mg/kg,0
same,Mortalité en 1 heure,souris femelles; 250 mg/kg,0
same,Mortalité en 48 h.,souris femelles; 250 mg/kg,0
"CN(C)CCCN1c2ccccc2-c2c(-c3ccccc3)nn(-c3ccccc3)c2-c2ccccc21 [compound 14, (γ-diméthylaminopropyl)-8-diphényl-1,3 dihydro-1,8 (dibenzo [b,f]pyrazolo [3,4-d])azépine]",change in vivo at 150 mg/kg,Souris; [2],40%
same,variation de température T=1h,Souris; product i.p. 150 mg/kg,"+1,5"
same,variation de température T= 2h,Souris; product i.p. 150 mg/kg,"+0,6"
same,variation de température T=3h,Souris; product i.p. 150 mg/kg,"+0,6"
same,variation de température T=4h,Souris; product i.p. 150 mg/kg,"+0,1"
same,LD50 at 48 h,[1],200 mg/kg
same,mortality at 48 h,[1]; 50 mg/kg,0%
same,mortality at 48 h,[1]; 100 mg/kg,0%
same,mortality at 48 h,[1]; 250 mg/kg,80%
same,mortality at 48 h,[1]; 500 mg/kg,100%
same,Mortalité en 1 heure,souris femelles; 50 mg/kg,0
same,Mortalité en 48 h.,souris femelles; 50 mg/kg,0
same,Mortalité en 1 heure,souris femelles; 100 mg/kg,0
same,Mortalité en 48 h.,souris femelles; 100 mg/kg,0
same,Mortalité en 1 heure,souris femelles; 250 mg/kg,2
same,Mortalité en 48 h.,souris femelles; 250 mg/kg,4
same,Mortalité en 1 heure,souris femelles; 500 mg/kg,3
same,Mortalité en 48 h.,souris femelles; 500 mg/kg,5
"CC(CN(C)C)CN1c2ccccc2-c2c(-c3ccccc3)nn(-c3ccccc3)c2-c2ccccc21 (stereo not drawn) [compound 15, (méthyl-2 diméthylamino-3 propyl)-8 diphényl 1,3 dihydro-1,8(dibenzo [b,f]pyrazolo [3 ,4-d]) azépine]",LD50 at 48 h,[1],175 mg/kg
same,mortality at 48 h,[1]; 50 mg/kg,0%
same,mortality at 48 h,[1]; 100 mg/kg,0%
same,mortality at 48 h,[1]; 250 mg/kg,80%
same,mortality at 48 h,[1]; 300 mg/kg,80%
same,Mortalité en 1 heure,souris femelles; 50 mg/kg,0
same,Mortalité en 48 h.,souris femelles; 50 mg/kg,0
same,Mortalité en 1 heure,souris femelles; 100 mg/kg,0
same,Mortalité en 48 h.,souris femelles; 100 mg/kg,0
same,Mortalité en 1 heure,souris femelles; 250 mg/kg,2
same,Mortalité en 48 h.,souris femelles; 250 mg/kg,4
same,Mortalité en 1 heure,souris femelles; 300 mg/kg,0
same,Mortalité en 48 h.,souris femelles; 300 mg/kg,4
"c1ccc(-c2noc3c2-c2ccccc2Nc2ccccc2-3)cc1 [compound 16, phényl-3 (dibenzo [b,f]isoxazolo [4,5-d]) 8H azépine]",LD50 at 48 h,[1],> 1000 mg/kg
same,mortality at 48 h,[1]; 50 mg/kg,0%
same,mortality at 48 h,[1]; 100 mg/kg,0%
same,mortality at 48 h,[1]; 250 mg/kg,20%
same,mortality at 48 h,[1]; 500 mg/kg,0%
same,mortality at 48 h,[1]; 1000 mg/kg,0%
same,Mortalité en 1 heure,souris femelles; 50 mg/kg,0
same,Mortalité en 48 h.,souris femelles; 50 mg/kg,0
same,Mortalité en 1 heure,souris femelles; 100 mg/kg,0
same,Mortalité en 48 h.,souris femelles; 100 mg/kg,0
same,Mortalité en 1 heure,souris femelles; 250 mg/kg,0
same,Mortalité en 48 h.,souris femelles; 250 mg/kg,1
same,Mortalité en 1 heure,souris femelles; 500 mg/kg,0
same,Mortalité en 48 h.,souris femelles; 500 mg/kg,0
same,Mortalité en 1 heure,souris femelles; 1000 mg/kg,0
same,Mortalité en 48 heures,souris femelles; 1000 mg/kg,0
"(γ-diméthylaminopropyl)-8 phényl-1 (chloro-4' phényl)-3 tétrahydro-1,3a, 8,12b(dibenzo[b,f]pyrazolo [3,4-d])azépine [compound 11]",% d'augmentation par rapport aux témoins,Souris; product i.p. 150 mg/kg,85%
same,variation de température T= 2h,Souris; product i.p. 150 mg/kg,"+0,4"
same,variation de température T=3h,Souris; product i.p. 150 mg/kg,"+0,5"
same,variation de température T=4h,Souris; product i.p. 150 mg/kg,"+0,7"
same,DL 50,"souris femelles; souris femelles, 2880 min",>1000 mg/kg
same,Mortalité %,"souris femelles; 250 mg/kg, 2880 min",0%
same,Mortalité en 1 heure,souris femelles; 250 mg/kg,0
same,Mortalité en 48 h.,souris femelles; 250 mg/kg,0
same,Mortalité %,"souris femelles; 450 mg/kg, 2880 min",0%
same,Mortalité en 1 heure,souris femelles; 450 mg/kg,0
same,Mortalité en 48 heures,souris femelles; 450 mg/kg,0
same,Mortalité %,"souris femelles; 1000 mg/kg, 2880 min",0%
same,Mortalité en 1 heure,souris femelles; 1000 mg/kg,0
same,Mortalité en 48 heures,souris femelles; 1000 mg/kg,0

# Source: patent publication EP0063525A1, “Dibenzazepine tetracyclic derivatives, process for their preparation and pharmaceutical compositions containing them” (CENTRE NATIONAL DE LA RECHERCHE SCIENTIFIQUE (CNRS), priority 1981, dated 1982)
